Entries after “also recorded” stand apart in the source; their conditions may differ.
Legend:
Assay type in all cases: cell-based
[1] = tested on: CHO cells; assay: Test of translocation of fluorescence-labeled peptides into CHO cells (FACS and confocal microscopic analysis); conditions: for intracellular translocation compared with KSH1 (in words): 12.5 μM and 6.5 μM
Protocol: Each peptide solution, adjusted to 1 mM, was diluted with a medium to three levels, 100 μM, 50 μM, and 25 μM, and added to cells. Three kinds of cells were used: CHO cells, HeLa cells, and Jurkat cells. After each peptide solution was added, the cells were incubated for 1 hour. After the cells were washed with PBS three times, 100 μL of 0.25% trypsin-1 mM EDTA solution was added, and trypsinization was performed at room temperature for 5 minutes. After 400 μL of PBS (10% FCS) was added to stop the trypsinization, the cells were washed with 1 mL of HBSS three times. After the washing, the cells were suspended in 500 μL of PBS (10% FCS) and subjected to flowcytometry (hereinafter, FACS) analysis using FACS Calibur (Becton Dickinson).
Each peptide was synthesized, fluorescently labeled, purified and dissolved in the same manner as Example 1-2, a test of translocation into CHO cells was performed, and an evaluation was performed by confocal microscopic analysis and FACS. FACS analysis was performed in the same manner as Example 1-3. For the KSH1 peptide and modified PTD sequences, i.e., KSH1-1 to KSH1-9 peptides (SEQ ID NOS:1 to 9 in the sequence listing), fluorescence intensities determined by FACS analysis are shown in FIG. 6. The peptide addition concentrations were 50 μM, 25 μM, 12.5 μM and 6.5 μM.
To determine which amino acids are important to the intracellular translocation, comprehensive alanine substitution was performed on the basis of KSH1-1 to design KSH1-11 (SEQ ID NO:11 in the sequence listing) to KSH1-23 (SEQ ID NO:22 in the sequence listing) and KSH1-35 (SEQ ID NO:32 in the sequence listing) (FIG. 7). Each peptide was synthesized, fluorescently labeled, purified and dissolved in the same manner as Example 1-2, a test of translocation into CHO cells was performed, and an evaluation was performed by confocal microscopic analysis and FACS. FACS analysis was performed in the same manner as Example 1-3. For KSH1 and modified PTD sequences, i.e., KSH11-11 to 23 and KSH1-35, fluorescence intensities determined by FACS analysis are shown in FIG. 8. The peptide addition concentrations were 50 μM, 25 μM, 12.5 μM and 6.5 μM.
(§1) Each peptide was synthesized, fluorescently labeled, purified and dissolved in the same manner as Example 1-2, a test of translocation into CHO cells was performed, and an evaluation was performed by confocal microscopic analysis and FACS analysis. FACS analysis was performed in the same manner as Example 1-3. For KSH1 and modified PTD sequences, i.e., KSH11-24 to 1-26 and KSH1-28 to 1-30, fluorescence intensities determined by FACS analysis are shown in FIG. 10. The peptide addition concentrations were 50 μM, 25 μM, 12.5 μM and 6.5 μM.
as §1, with “KSH1-27, KSH1-33, KSH1-34” for “KSH11-24 to 1-26”, “KSH1-36,” for “KSH1-28 to 1-30,”, “12.” for “10.”
Each peptide was synthesized, fluorescently labeled, purified and dissolved in the same manner as Example 1-2, and an intracellular translocation test in CHO cells was performed by FACS analysis. Used for positive control were a PTD sequence derived from HIV TAT ([…] in the sequence listing) and the KSH1 peptide; used for negative control was a peptide sequence lacking intracellular transferability (SEQ ID NO:57 in the sequence listing).

[2] = tested on: Jurkat cells; assay: Confocal microscopic analysis of intracellular translocation of synthetic peptides in Jurkat cells
Protocol: (§2) Three kinds of cells were used for incorporating the peptides: CHO cells (ATCC NO. CCL-61), HeLa cells, and Jurkat cells. 10^4 CHO cells and HeLa cells and 10^5 Jurkat cells were separately inoculated to a 96-well plate, and cultured for 2 or 3 days. Subsequently, when the cells became confluent, each peptide solution was added to each type of cell, and the cells were incubated for 1 hour. After each type of cell was washed with PBS three times, 100 μL of 0.25% trypsin-1 mM EDTA solution was added, and trypsinization was performed at room temperature for 5 minutes. After 400 μL of PBS (10% FCS) was added to neutralize the trypsin, the cells were washed with 1 mL of HBSS (Hanks' Balanced Salt Solution/produced by Invitrogen) three times. After the washing, the cells were suspended in 50 μL of HBSS and analyzed using a confocal microscope. Measurements and analysis were performed using a confocal differential interference laser microscope system (Bio-Rad, Radience2100/Green He-Ne, 488 nm, microscope: Nikon, ECLIPSE E600).
In Jurkat cells as well, intracellular translocation experiments of synthetic peptides of modified PTD sequences were performed by confocal microscopic analysis.

[3] = tested on: HeLa cells; assay: Confocal microscopic analysis of intracellular translocation of synthetic peptides in HeLa cells
Protocol: as §2
In HeLa cells as with CHO cells, intracellular translocation experiments of synthetic peptides of modified PTD sequences were performed by confocal microscopic analysis.

[4] = tested on: CHO cells; assay: Test of translocation of fluorescence-labeled peptides into CHO cells (FACS and confocal microscopic analysis); conditions: FACS
[5] = tested on: CHO cells, HeLa cells, and Jurkat cells; assay: Confocal microscopic analysis of intracellular translocation of fluorescence-labeled peptides; conditions: fluorescence-labeled peptide, confocal microscope
Source text: With the PTD derived from HIV TAT protein shown by SEQ ID NO:50 in the sequence listing as the positive control (in FIG. 1 to FIG. 3, denoted by “Positive” or “TAT”), and a mutant of the TAT-derived PTD shown by SEQ ID NO:51 in the sequence listing, reported by Ulo Langel et al. (Cell-Penetrating Peptides: Processes and Applications, Series: Pharmacology and Toxicology: Basic and Clinical Aspects Volume:3, 2002), as the negative control (in FIG. 1, denoted by “Negative”), the peptides of the 11 sequences selected in Example 1-1 were evaluated.
The peptides of the 11 sequences selected in Example 1-1 were synthesized by the solid phase method, and fluorescently labeled by coupling 5,6-Carboxyfluorescein to the N-terminus of each peptide. Furthermore, the peptides were purified by HPLC to obtain a purity of 70% or more. Subsequently, each fluorescently labeled peptide was dissolved in 10% Dimethyl Sulfoxide (DMSO) to obtain 1 mM (hereinafter referred to as peptide solution).
as §2
Of the novel PTD sequences found in Example 5, the KSH2 peptide is highly capable of translocating eGFP into cells; an attempt was made to modify the KSH2 peptide. The KSH2-1 to KSH2-4 peptides (SEQ ID NOS:44 to 47 in the sequence listing) were synthesized, fluorescently labeled, purified and dissolved in the same manner as Example 1-2, a test of translocation into CHO cells was performed, and confocal microscopic analysis was performed.
First, two cases were examined: two cysteines were substituted with alanine (KSH2-1) or with tryptophan (KSH2-2). FITC-labeled peptides were synthesized, and their intracellular translocation efficiencies were examined using CHO, HeLa, and Jurkat cells (FIG. 21, the peptide addition concentration was 50 μM, 25 μM or 12.5 μM).

[6] = tested on: CHO cells; assay: Confocal microscopic analysis of translocation of fluorescence-labeled peptides into CHO cells; conditions: for intracellular translocation profile compared with PTD1: Example 5-2, 50 μM to 12.5 μM (FIG. 19: 25 μM)
Protocol: as §2
Furthermore, CHO cells were inoculated to a slide chamber (produced by Nunc), 25 μM of each of the KSH1 peptide and positive control was added to the CHO cells, and the intracellular transferability thereof was determined using a confocal microscope.
For KSH2 to KSH10 (SEQ ID NOS:35 to 43 in the sequence listing), a test of translocation into CHO cells was performed in the same manner as Example 1-2, and confocal microscopic analysis was performed. Used for positive control were a PTD sequence derived from HIV TAT (SEQ ID NO:50 in the sequence listing) and the KSH1 peptide; used for negative control was a peptide sequence lacking intracellular transferability (SEQ ID NO:57 in the sequence listing).
In the confocal microscopic analysis, a background correction was performed using cells to which the negative control peptide (SEQ ID NO:57 in the sequence listing) had been added. Thereafter, the positive control PTD1 peptide (SEQ ID NO:50 in the sequence listing) was added, and fluorescence in the cells was examined.
Regarding novel PTD sequence, each peptide was analyzed in a series of 2-fold dilutions at three levels from 50 μM to 12.5 μM. […] The PTD candidate sequences identified here clearly retained the capability of intracellular translocation.

In the case of “KSH1-1: KSH1 with the lysine of the lysine/arginine cluster substituted with arginine (RLWMRWYSPTTRRYG; Designed peptide to act as PTD(Protein Transduction Domain))”, the “intracellular translocation compared with KSH1 (in words)” value ([1]; 50 μM, 25 μM) is reported as “clearly accentuated intracellular translocation”, the “intracellular translocation compared with KSH1” value ([1]; FACS, 12.5 μM) is reported as “about 8 times” and the “intracellular translocation compared with KSH1” value ([1]; FACS, 25 μM) is reported as “about 2 times”. The “decrease of translocation efficiency compared with KSH1” value ([1]; FACS, 50 μM) was “about 20%”, the “intracellular translocation in Jurkat cells as compared to that of SEQ ID NO:37” value [2] was “better intracellular translocation” and the “intracellular translocation in HeLa cells (modified peptides with better translocation)” value ([3]; confocal microscopic analysis) was “better intracellular translocation”. For the same substance, the “intracellular translocation compared with KSH1” value ([4]; 6.25 μM) was “about 2 times”.
With “KSH1-7: KSH1 with threonine substituted with tryptophan to form a tryptophan cluster (KLWMRWYSPWTRRYG; Designed peptide to act as PTD(Protein Transduction Domain))” the “intracellular translocation compared with KSH1 (in words)” value ([1]; 50 μM, 25 μM) was “accentuated remarkably; also recorded: clearly accentuated intracellular translocation”, the “intracellular translocation compared with KSH1” value ([1]; FACS, 12.5 μM) was “not less than 10 times” and the “intracellular translocation in Jurkat cells as compared to that of SEQ ID NO:37” value [2] was “better intracellular translocation”. For the same substance, the “intracellular translocation in HeLa cells compared with CHO cells” value ([3]; confocal microscopic analysis) was “lower” and the “intracellular translocation compared with KSH1” value ([4]; between 25 μM and 6.15 μM) was “not less than 3 times”.
“KSH1: novel PTD candidate sequence of 15 amino acids selected from the random peptide library (KLWMRWYSPTTRRYG; Designed peptide to act as PTD(Protein Transduction Domain))” was tested, and the “localization of the intracellularly transported peptide” value [5] was “detected both in the nucleus and in cytoplasm”, the “fluorescence from the peptide in the cells” value ([5]; incubated 1 hour) was “fluorescence from the KSH1 peptide was observed” and the “fluorescence intensity compared with the positive control (PTD derived from HIV TAT, SEQ ID NO:50)” value ([5]; incubated 1 hour) was “higher than the fluorescence intensity of the positive control”. The “intracellular transferability among the peptides of the 11 selected sequences” value ([5]; incubated 1 hour) was “highest intracellular transferability” and the “translocation into CHO cells” value ([6]; slide chamber, 25 μM) was “translocated into all CHO cells”.
“KSH2: novel PTD sequence from the 7-time-concentrated library of Jurkat cells (WKCRRQCFRVLHHWN; Designed peptide to act as PTD(Protein Transduction Domain))” was tested, and the “intracellular translocation profile compared with PTD1” value [6] was “better intracellular translocation profiles than PTD1” and the “localization of the peptide in HeLa cells” value ([3]; Example 5-2) was “localized as fringing the surface of the cell membrane”.
With “KSH3: novel PTD sequence from the 7-time-concentrated library of Jurkat cells (IPSRWKDQFWKRWHY; Designed peptide to act as PTD(Protein Transduction Domain))” the “intracellular translocation profile compared with PTD1” value [6] was “better intracellular translocation profiles than PTD1”.
In the case of “KSH4: novel PTD sequence from the 7-time-concentrated library of Jurkat cells (KNAWKHSSCHHRHQI; Designed peptide to act as PTD(Protein Transduction Domain))”, the “intracellular translocation profile compared with PTD1” value [6] is reported as “better intracellular translocation profiles than PTD1”.
“KSH6: novel PTD sequence from the 7-time-concentrated library of Jurkat cells (LITKQYRYPSRRRFN; Designed peptide to act as PTD(Protein Transduction Domain))” was tested, and the “intracellular translocation profile compared with PTD1” value [6] was “better intracellular translocation profiles than PTD1”.
With “KSH7: novel PTD sequence from the 7-time-concentrated library of Jurkat cells (QQHLLIAINGYPRYN; Designed peptide to act as PTD(Protein Transduction Domain))” the “intracellular translocation profile compared with PTD1” value [6] was “better intracellular translocation profiles than PTD1”.
With “KSH10: novel PTD sequence from the 7-time-concentrated library of Jurkat cells (KRPTMRFRYTWNPMK; Designed peptide to act as PTD(Protein Transduction Domain))” the “intracellular translocation profile compared with PTD1” value [6] was “better intracellular translocation profiles than PTD1”.
